Measured values reported in the supplement of paper PMC10307832.

Key:
Experiment in all cases: relative viability (nuclei count vs DMSO), 5 days (fraction); higher = more cells survive
[1] = compound: CCN1C(=O)C2=CC(=C(N=C2N(C1=O)C3CC3)N)C(=O)N
Outline: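 Lung cancer cell lines in 1536-well plates were kept overnight at 37 °C, then pinned with five library-drug doses (not always all listed) spaced by √10 on vehicle-anchored plates. After 5 days without medium change, cells were fixed, permeabilised and Hoechst-stained in one step, imaged at 4×, and nuclei were counted with MetaXpress. Viability is treated-well nuclei divided by vehicle-well nuclei, taken as the median over plates. Plates passed only with control CV below 25% and at least one doubling.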

[2] = compound: CCN1C(=O)C2=CC(=C(N=C2N(C1=O)C3CC3)N)C(=O)N + CC1(C)CCC(c2ccc(Cl)cc2)=C(CN2CCN(c3ccc(C(=O)NS(=O)(=O)c4ccc(N[C@H](CCN5CCOCC5)CSc5ccccc5)c(S(=O)(=O)C(F)(F)F)c4)cc3)CC2)C1 [Navitoclax] (partner 0.5 µM)
Outline: (§1)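 Relative viability divides the nuclei count in treated wells by that in vehicle wells. Lung cancer cell lines were seeded in 1536-well plates, dosed by pin tool the next day, and fixed and stained after 5 days in one step with final 0.05% Triton X-100, 1% formaldehyde and 1 ug/ml Hoechst. Dosing was a single drug or a fixed anchor-drug dose plus five library-drug doses (not always all listed) in √10 steps, and values are medians of duplicate plates imaged at 4×.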

[3] = compound: CCN1C(=O)C2=CC(=C(N=C2N(C1=O)C3CC3)N)C(=O)N + CS(=O)(=O)CCNCc1ccc(-c2ccc3ncnc(Nc4ccc(OCc5cccc(F)c5)c(Cl)c4)c3c2)o1 [Lapatinib] (partner 2 µM)
Outline: as §1

[4] = compound: CCN1C(=O)C2=CC(=C(N=C2N(C1=O)C3CC3)N)C(=O)N + Cc1nc(Nc2ncc(C(=O)Nc3c(C)cccc3Cl)s2)cc(N2CCN(CCO)CC2)n1 [Dasatinib] (partner 0.075 µM)
Outline: as §1

[5] = compound: CCN1C(=O)C2=CC(=C(N=C2N(C1=O)C3CC3)N)C(=O)N + O=C(CCCCCCC(=O)Nc1ccccc1)NO [Vorinostat] (partner 1 µM)
Outline: as §1

Cell Line	relative viability ([1]; 0.253 µM)	relative viability ([1]; 0.8 µM)	relative viability ([1]; 2.53 µM)	relative viability ([1]; 8 µM)	relative viability ([2]; first compound 0.253 µM)	relative viability ([2]; first compound 0.8 µM)	relative viability ([2]; first compound 2.53 µM)	relative viability ([2]; first compound 8 µM)	relative viability ([3]; first compound 0.253 µM)	relative viability ([3]; first compound 0.8 µM)	relative viability ([3]; first compound 2.53 µM)	relative viability ([3]; first compound 8 µM)	relative viability ([4]; first compound 0.253 µM)	relative viability ([4]; first compound 0.8 µM)	relative viability ([4]; first compound 2.53 µM)	relative viability ([4]; first compound 8 µM)	relative viability ([5]; first compound 0.253 µM)	relative viability ([5]; first compound 0.8 µM)	relative viability ([5]; first compound 2.53 µM)	relative viability ([5]; first compound 8 µM)
SW 1573	0.937	1.07	0.959	0.978	0.949	0.977	0.919	0.979	1.03	1.02	1.23	0.985	0.564	0.411	0.483	0.464	0.824	0.848	0.624	0.682
NCI-H322M	0.959	0.929	0.984	0.996	1.06	1.12	1.14	1.13	0.585	0.536	0.562	0.592	0.275	0.224	0.256	0.248	1.04	0.758	1.04	0.931
NCI-H1651	0.929	0.976	0.965	0.948	0.996	1.27	0.969	1.03	0.749	0.78	0.936	0.834	0.454	0.465	0.357	0.381	0.571	0.493	0.55	0.462
HARA	0.975	0.927	0.947	0.918	1.15	1.13	1.08	1.12	0.809	0.688	0.839	0.69	0.321	0.234	0.233	0.246	0.563	0.5	0.57	0.552
H3255	0.995	0.906	1.01	0.929	0.625	0.509	0.617	0.559	0.246	0.216	0.192	0.258	0.403	0.444	0.425	0.347	0.838	0.688	0.819	0.831
CAL-12T	1	0.964	1.02	1.02	1.14	1.1	1.06	1.2	0.528		0.716	0.859	0.466	0.377	0.452	0.462	0.771	0.642	0.659	0.803
NCI-H1437	0.982	0.979	0.969	0.972	1.12	1.09	1.07	1.12	0.818	0.794	0.829	0.838	0.404	0.367	0.464	0.418	0.845	0.804	0.756	0.808
HOP-62	1.01	1.03	1	1.03	1.08	1.11	0.969	0.924	0.844	1.29	1.01	1.1	0.715	0.614	0.695	0.598	0.622	0.71	0.58	0.579
EPLC-272H	0.891	0.863	0.999	1.09	0.994	1.26	1.13	1.2	0.834	0.867	0.932	1.13	0.425	0.394	0.377	0.431		0.538	0.411	0.477
COR-L 105	0.979	0.841	0.875	0.963	0.847	0.74	0.586	0.794	0.308	0.339	0.424	0.398	0.358	0.261	0.264	0.304	0.902	0.779	0.688	0.819
HCC-366	0.981	0.968	0.996	1.03	0.985	0.991	1.1	1.05	1.06	0.966	0.988	1.05		0.656	0.518	0.611	0.363	0.384	0.297	0.277
NCI-H2009	1.02	1	0.946	0.923	1.15	1.14	1.11	1.08	0.93	1.23	0.892	0.847	0.289	0.291	0.275	0.259	0.732	0.647	0.62	0.663
NCI-H23	0.86	0.96	0.977	0.984	0.772	0.924	0.659	0.769	1.21	1.08	1.06	1.11	0.786	0.746	0.762	0.656	0.548	0.715	0.58	0.635
NCI-H838	0.99	0.965	0.923	0.96	1.21	1.19	1.13	1.09	0.948	1.02	0.916	0.896	0.29	0.296	0.316	0.265	0.756	0.694	0.692	0.752
NCI-H1355	1	0.998	0.992	0.973	0.969	0.987	0.861	0.921	1.08	1.06	0.998	1.01	0.728	0.717	0.701	0.725	0.626	0.662	0.636	0.674
